We go through one molecule from patent US20140275090A1, “BILE ACID RECYCLING INHIBITORS FOR TREATMENT OF PRIMARY SCLEROSING CHOLANGITIS AND INFLAMMATORY BOWEL DISEASE” (Lumena Pharmaceuticals, Inc., priority 2013, published 2014).

Series [1] in a line: Toxicokinetics of LUM001 free form, 13-week oral capsule toxicity study in dogs. It counts as in vivo, Beagle dog. Conditions: 13-wk dog capsule, 20 mg/kg. As to the method:
Six- to seven-month old Beagle dogs of body weights of 4.9-9.5 kg (4/sex/group) orally via capsules at 0, 5, 20 or 100 mg/kg for 13 consecutive weeks. Plasma levels of LUM001 (free form) were evaluated on Days 1 and 91. LUM001 was administered by once daily oral gelatin capsules. […] therefore, 105% of a stated dose is given to provide the appropriate amount of compound for dosing. On study Day 1 and Day 91, approximately 2 mL of venous blood was collected in heparinized tubes from the cephalic vein of each animal at 1, 2, 3, 5, 8, and 24 hours post-dose. Blood collection tubes were mixed and placed on ice during the collection period after which they were centrifuged and the plasma was harvested into cryotubes within approximately 60 minutes of blood collection. Plasma samples were stored at approximately −70° C. or lower until analyzed.
The concentration of LUM001 free form in plasma were determined using an LC/MS/MS method. The assay sensitivity was 5.00 ng/mL for a 100 mL sample.

Series [2] has as its system serum bile acids. In words: Phase 1 ascending multiple oral doses of LUM001 in healthy adults: serum bile acid analysis. It counts as in vivo, human. The settings on record: 28 days. How it is done: This Phase 1 study was a randomized, double-blind, placebo-controlled study of ascending multiple oral doses of LUM001 in healthy, adult subjects. This study was conducted at a single center. There were 13 LUM001 dosing panels: 10, 20, 60, 100, and 20 mg every morning (qAM) (2) (i.e., the regimen was tested a second time in the study), 5 mg every evening (qPM), 0.5, 1, 2.5, 5, 2.5 (2), 5 (2), and 0.5 to 5 mg qAM dose titration. Most of the dosing panels included subjects treated with matching placebo. No subject participated in more than 1 dosing panel. Subjects were randomized into the study by dosing panel, and all subjects within a dosing panel received study medication at approximately the same time each day. Safety was reviewed for each panel before subsequent panels were initiated. A total of 167 subjects were treated for 28 days, 147 with LUM001 and 20 with placebo. […]
On Day 1 of the Treatment Period, subjects who qualified for enrollment were randomized in the order in which they were admitted to the research facility. […] The safety and tolerability of LUM001 were evaluated by physical examination, ascertainment of adverse signs and symptoms, and clinical laboratory studies. […]
SBA were analyzed as part of the routine clinical analysis of the serum samples collected at each time point.

The test system of series [3] is serum bile acids. The experiment in a line: Inhibition of the postprandial rise in SBA (AUC 0-240 min) in dogs, LUM001 compared to cholestyramine. It counts as in vivo, dog. As to the method: LUM001 was dissolved in 0.2% Tween 80 at concentrations that required the administration of 0.2 ml dosing solution/kg of body weight at each dose tested. Cholestyramine was suspended in water at concentrations that required the administration of 2.5 ml/kg (500 mg/kg) and 1 ml/kg (200 mg/kg). The appropriate volume of solution formulation for each animal was placed into a gelatin capsule, Torpac Inc., size 13, Batch 594, East Hanover, N.J. and administered per os. Test compounds were administered as single oral doses to groups of dogs, 3 to 9 dogs per group at varying dosages. LUM001 was given at 0, 0.02, 0.05, 0.2, 0.6, 2, 5 or 15 mg/kg. Cholestyramine was administered at 200 or 500 mg/kg. […] No dog received any one compound dosage more than once. SBA was measured by an enzymatic assay. SBA values are expressed as μg of total bile acids/ml of serum.

With `CCCCC1(CCCC)CS(=O)(=O)c2ccc(N(C)C)cc2[C@@H](c2ccc(OCc3ccc(C[N+]45CCN(CC4)CC5)cc3)cc2)[C@H]1O` [LUM001], the Cmax – broadly, the highest concentration seen after dosing – was found to be 25.1 ng/mL in series [1] (Day 1, Comb) and 25.0 ng/mL in series [1] (Day 91, F). For the same molecule, the “effect on serum bile acids” value is given as “significant reduction” in the series with serum bile acids [2] and “significantly decreased” with serum bile acids [3] (single oral doses 0.02-15 mg/kg). Besides, the “inhibition of postprandial serum bile acids AUC compared to cholestyramine” value in the series on serum bile acids [3] (cholestyramine 200 or 500 mg/kg, AUC 0-240 min) is reported as “superior inhibition”.
